Experimental data published in ChEMBL document CHEMBL4507293 (2021).

How the values were obtained:
[1] = target: Serine/threonine-protein kinase B-raf (Homo sapiens) (UniProt P15056); conditions: Compound concentration 100.0 nM
[2] = target: Serine/threonine-protein kinase PLK3 (Homo sapiens) (UniProt Q9H4B4); conditions: Compound concentration 100.0 nM
[3] = target: Serine/threonine-protein kinase OSR1 (Homo sapiens) (UniProt O95747); conditions: Compound concentration 100.0 nM
[4] = target: Calcium/calmodulin-dependent protein kinase kinase 1 (Homo sapiens) (UniProt Q8N5S9); conditions: Compound concentration 100.0 nM
[5] = target: High affinity nerve growth factor receptor (Homo sapiens) (UniProt P04629); conditions: Compound concentration 100.0 nM
[6] = target: Ephrin type-B receptor 1 (Homo sapiens) (UniProt P54762); conditions: Compound concentration 100.0 nM
[7] = target: Bone morphogenetic protein receptor type-2 (Homo sapiens) (UniProt Q13873); conditions: Compound concentration 100.0 nM
[8] = target: Calcium/calmodulin-dependent protein kinase type 1 (Homo sapiens) (UniProt Q14012); conditions: Compound concentration 100.0 nM
[9] = target: Dual specificity mitogen-activated protein kinase kinase 2 (Homo sapiens) (UniProt P36507); conditions: Compound concentration 100.0 nM
[10] = target: Phosphatidylinositol 4,5-bisphosphate 3-kinase catalytic subunit delta isoform (Homo sapiens) (UniProt O00329); conditions: Compound concentration 100.0 nM
[11] = target: Serine/threonine-protein kinase haspin (Homo sapiens) (UniProt Q8TF76); conditions: Compound concentration 100.0 nM
[12] = target: Activin receptor type-2A (Homo sapiens) (UniProt P27037); conditions: Compound concentration 100.0 nM
[13] = target: Death-associated protein kinase 2 (Homo sapiens) (UniProt Q9UIK4); conditions: Compound concentration 100.0 nM
[14] = target: Cyclin-G-associated kinase (Homo sapiens) (UniProt O14976); conditions: Compound concentration 100.0 nM
[15] = target: 5-hydroxytryptamine receptor 1E (Homo sapiens) (UniProt P28566); conditions: Compound concentration 10.0 uM
[16] = target: Ribosomal protein S6 kinase alpha-4 (Homo sapiens) (UniProt O75676); conditions: Compound concentration 100.0 nM
[17] = target: 3-phosphoinositide-dependent protein kinase 1 (Homo sapiens) (UniProt O15530); conditions: Compound concentration 100.0 nM
[18] = target: Interleukin-1 receptor-associated kinase 4 (Homo sapiens) (UniProt Q9NWZ3); conditions: Compound concentration 100.0 nM
[19] = target: Misshapen-like kinase 1 (Homo sapiens) (UniProt Q8N4C8); conditions: Compound concentration 100.0 nM
[20] = target: Serine/threonine-protein kinase DCLK1 (Homo sapiens) (UniProt O15075); conditions: Compound concentration 100.0 nM
[21] = target: Ephrin type-B receptor 3 (Homo sapiens) (UniProt P54753); conditions: Compound concentration 100.0 nM
[22] = target: Serine/threonine-protein kinase WNK1 (Homo sapiens) (UniProt Q9H4A3); conditions: Compound concentration 100.0 nM
[23] = target: Serine/threonine-protein kinase 3 (Homo sapiens) (UniProt Q13188); conditions: Compound concentration 100.0 nM
[24] = test system: Receptor-type tyrosine-protein kinase FLT3 (Homo sapiens), P36888 [D835Y]; conditions: Compound concentration 100.0 nM
[25] = target: Dual specificity protein kinase CLK1 (Homo sapiens) (UniProt P49759); conditions: Compound concentration 100.0 nM
[26] = target: Serine/threonine-protein kinase Nek6 (Homo sapiens) (UniProt Q9HC98); conditions: Compound concentration 100.0 nM
[27] = target: Serine/threonine-protein kinase RIO2 (Homo sapiens) (UniProt Q9BVS4); conditions: Compound concentration 100.0 nM
[28] = target: Serine/threonine-protein kinase D1 (Homo sapiens) (UniProt Q15139); conditions: Compound concentration 100.0 nM
[29] = target: Cyclin-dependent kinase-like 2 (Homo sapiens) (UniProt Q92772); conditions: Compound concentration 100.0 nM
[30] = target: Eukaryotic translation initiation factor 2-alpha kinase 1 (Homo sapiens) (UniProt Q9BQI3); conditions: Compound concentration 100.0 nM
[31] = target: Bone morphogenetic protein receptor type-1B (Homo sapiens) (UniProt O00238); conditions: Compound concentration 100.0 nM
[32] = target: Serine/threonine-protein kinase PAK 1 (Homo sapiens) (UniProt Q13153); conditions: Compound concentration 100.0 nM
[33] = target: Dual specificity protein kinase CLK3 (Homo sapiens) (UniProt P49761); conditions: Compound concentration 100.0 nM
[34] = target: T1, Muscarinic acetylcholine receptor M5 (Homo sapiens) (UniProt P08912); conditions: Compound concentration 10.0 uM
T1 sequence (whole entry): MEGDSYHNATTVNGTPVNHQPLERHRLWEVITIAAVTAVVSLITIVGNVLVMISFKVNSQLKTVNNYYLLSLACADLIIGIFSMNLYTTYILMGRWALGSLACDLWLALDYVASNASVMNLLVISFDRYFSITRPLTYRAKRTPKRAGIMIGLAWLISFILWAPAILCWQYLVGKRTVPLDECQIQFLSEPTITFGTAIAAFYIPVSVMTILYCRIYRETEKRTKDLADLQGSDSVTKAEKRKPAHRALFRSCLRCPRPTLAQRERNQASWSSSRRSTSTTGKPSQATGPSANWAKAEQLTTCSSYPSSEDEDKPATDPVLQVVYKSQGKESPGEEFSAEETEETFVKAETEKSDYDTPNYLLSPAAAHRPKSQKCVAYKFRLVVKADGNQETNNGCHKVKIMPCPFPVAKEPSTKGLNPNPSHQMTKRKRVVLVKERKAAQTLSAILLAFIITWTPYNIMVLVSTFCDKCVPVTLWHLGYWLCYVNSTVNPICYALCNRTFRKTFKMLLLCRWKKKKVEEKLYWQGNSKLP

[35] = target: cGMP-dependent protein kinase 2 (Homo sapiens) (UniProt Q13237); conditions: Compound concentration 100.0 nM
[36] = target: Atypical kinase COQ8B, mitochondrial (Homo sapiens) (UniProt Q96D53); conditions: Compound concentration 100.0 nM
[37] = target: Receptor tyrosine-protein kinase erbB-4 (Homo sapiens) (UniProt Q15303); conditions: Compound concentration 100.0 nM
[38] = target: Tyrosine-protein kinase Fes/Fps (Homo sapiens) (UniProt P07332); conditions: Compound concentration 100.0 nM

Sequence of Cyclin-G-associated kinase (Homo sapiens) (O14976 whole entry): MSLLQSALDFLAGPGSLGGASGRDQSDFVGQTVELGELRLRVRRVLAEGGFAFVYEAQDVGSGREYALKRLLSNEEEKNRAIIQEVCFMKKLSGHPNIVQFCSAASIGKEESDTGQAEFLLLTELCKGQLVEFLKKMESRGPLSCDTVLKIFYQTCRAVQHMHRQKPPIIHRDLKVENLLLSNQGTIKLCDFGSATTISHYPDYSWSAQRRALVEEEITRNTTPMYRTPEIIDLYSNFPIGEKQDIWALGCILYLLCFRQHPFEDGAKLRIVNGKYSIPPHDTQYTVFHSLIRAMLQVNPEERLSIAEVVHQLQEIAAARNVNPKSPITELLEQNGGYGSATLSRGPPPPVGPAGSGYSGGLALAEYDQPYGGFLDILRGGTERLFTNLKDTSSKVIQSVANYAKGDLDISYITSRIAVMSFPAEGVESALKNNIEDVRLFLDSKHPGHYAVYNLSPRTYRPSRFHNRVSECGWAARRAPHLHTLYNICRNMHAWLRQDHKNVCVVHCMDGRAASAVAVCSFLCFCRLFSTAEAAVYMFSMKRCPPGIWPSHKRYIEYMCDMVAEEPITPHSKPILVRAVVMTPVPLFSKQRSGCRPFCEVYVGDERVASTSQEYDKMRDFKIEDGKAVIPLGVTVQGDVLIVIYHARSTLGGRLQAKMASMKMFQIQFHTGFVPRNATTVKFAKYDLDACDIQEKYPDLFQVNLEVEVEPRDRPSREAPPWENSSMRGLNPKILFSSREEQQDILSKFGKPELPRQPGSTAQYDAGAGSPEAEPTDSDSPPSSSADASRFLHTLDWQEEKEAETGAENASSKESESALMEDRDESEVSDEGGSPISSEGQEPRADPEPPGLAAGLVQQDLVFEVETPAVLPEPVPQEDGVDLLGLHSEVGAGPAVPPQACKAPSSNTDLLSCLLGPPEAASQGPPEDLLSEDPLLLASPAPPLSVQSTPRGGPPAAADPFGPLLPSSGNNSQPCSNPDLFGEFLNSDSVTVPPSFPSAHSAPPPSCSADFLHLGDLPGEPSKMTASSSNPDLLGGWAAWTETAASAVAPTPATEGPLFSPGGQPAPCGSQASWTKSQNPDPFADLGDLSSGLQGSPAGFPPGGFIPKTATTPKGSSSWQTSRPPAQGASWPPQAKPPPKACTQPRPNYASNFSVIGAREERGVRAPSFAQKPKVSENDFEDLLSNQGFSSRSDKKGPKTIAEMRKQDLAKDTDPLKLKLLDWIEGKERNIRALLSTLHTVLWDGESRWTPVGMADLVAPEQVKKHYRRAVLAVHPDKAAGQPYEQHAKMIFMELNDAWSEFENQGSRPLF
Sequence of Receptor tyrosine-protein kinase erbB-4 (Homo sapiens) (Q15303 whole entry): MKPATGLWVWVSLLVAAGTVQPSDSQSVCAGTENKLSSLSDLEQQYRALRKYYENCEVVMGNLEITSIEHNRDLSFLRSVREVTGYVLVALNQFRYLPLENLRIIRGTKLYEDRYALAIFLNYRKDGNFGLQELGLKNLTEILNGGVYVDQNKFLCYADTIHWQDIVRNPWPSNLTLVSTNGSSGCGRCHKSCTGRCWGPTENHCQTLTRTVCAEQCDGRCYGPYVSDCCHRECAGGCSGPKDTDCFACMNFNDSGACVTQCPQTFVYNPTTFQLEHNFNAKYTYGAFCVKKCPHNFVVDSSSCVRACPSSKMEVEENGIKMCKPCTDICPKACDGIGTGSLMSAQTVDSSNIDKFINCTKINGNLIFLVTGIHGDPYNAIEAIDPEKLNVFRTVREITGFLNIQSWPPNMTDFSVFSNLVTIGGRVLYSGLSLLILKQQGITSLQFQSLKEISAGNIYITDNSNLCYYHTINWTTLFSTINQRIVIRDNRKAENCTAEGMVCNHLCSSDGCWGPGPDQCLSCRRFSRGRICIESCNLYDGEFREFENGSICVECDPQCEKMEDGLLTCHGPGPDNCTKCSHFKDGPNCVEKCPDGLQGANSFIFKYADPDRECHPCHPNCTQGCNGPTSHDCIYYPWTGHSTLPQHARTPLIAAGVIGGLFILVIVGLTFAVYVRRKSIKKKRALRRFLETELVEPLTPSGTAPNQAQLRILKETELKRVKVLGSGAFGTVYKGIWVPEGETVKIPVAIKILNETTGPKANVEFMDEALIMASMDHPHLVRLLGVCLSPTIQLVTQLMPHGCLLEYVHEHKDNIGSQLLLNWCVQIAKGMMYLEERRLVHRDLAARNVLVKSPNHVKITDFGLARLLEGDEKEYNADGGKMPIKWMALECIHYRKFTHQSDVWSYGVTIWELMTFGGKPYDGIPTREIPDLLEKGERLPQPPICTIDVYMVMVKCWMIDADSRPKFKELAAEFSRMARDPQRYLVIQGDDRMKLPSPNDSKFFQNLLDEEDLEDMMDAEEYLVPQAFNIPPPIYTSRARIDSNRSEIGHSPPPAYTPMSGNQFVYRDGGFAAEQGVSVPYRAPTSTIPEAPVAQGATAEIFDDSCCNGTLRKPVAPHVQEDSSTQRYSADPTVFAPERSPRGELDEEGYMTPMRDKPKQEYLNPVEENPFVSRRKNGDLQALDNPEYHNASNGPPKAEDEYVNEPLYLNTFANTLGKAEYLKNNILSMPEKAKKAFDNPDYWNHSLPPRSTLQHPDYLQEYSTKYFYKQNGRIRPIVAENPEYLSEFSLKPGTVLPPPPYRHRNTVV
Sequence of Death-associated protein kinase 2 (Homo sapiens) (Q9UIK4 whole entry, looked up): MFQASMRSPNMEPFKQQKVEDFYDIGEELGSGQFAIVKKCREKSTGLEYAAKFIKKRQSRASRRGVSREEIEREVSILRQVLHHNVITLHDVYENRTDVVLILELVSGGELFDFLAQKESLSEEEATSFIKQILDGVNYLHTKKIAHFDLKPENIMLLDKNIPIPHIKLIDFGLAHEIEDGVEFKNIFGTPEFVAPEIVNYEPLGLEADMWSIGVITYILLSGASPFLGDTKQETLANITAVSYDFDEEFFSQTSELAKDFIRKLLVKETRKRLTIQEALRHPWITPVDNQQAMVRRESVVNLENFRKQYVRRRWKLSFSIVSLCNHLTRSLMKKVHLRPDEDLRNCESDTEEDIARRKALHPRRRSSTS
Sequence of Serine/threonine-protein kinase 3 (Homo sapiens) (Q13188 whole entry): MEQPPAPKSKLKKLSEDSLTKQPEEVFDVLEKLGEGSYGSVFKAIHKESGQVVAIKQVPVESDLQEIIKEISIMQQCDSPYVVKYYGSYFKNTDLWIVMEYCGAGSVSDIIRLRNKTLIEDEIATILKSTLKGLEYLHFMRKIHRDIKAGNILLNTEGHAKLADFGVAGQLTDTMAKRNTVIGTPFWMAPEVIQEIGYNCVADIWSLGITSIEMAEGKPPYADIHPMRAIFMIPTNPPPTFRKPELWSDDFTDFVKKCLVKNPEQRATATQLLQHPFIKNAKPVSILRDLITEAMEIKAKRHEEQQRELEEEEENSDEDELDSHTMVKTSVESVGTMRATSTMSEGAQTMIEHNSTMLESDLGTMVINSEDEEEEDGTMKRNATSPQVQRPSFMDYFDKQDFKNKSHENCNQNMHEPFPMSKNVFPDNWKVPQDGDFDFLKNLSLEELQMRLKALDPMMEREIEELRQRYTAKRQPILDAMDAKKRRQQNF
Sequence of Bone morphogenetic protein receptor type-2 (Homo sapiens) (Q13873 whole entry): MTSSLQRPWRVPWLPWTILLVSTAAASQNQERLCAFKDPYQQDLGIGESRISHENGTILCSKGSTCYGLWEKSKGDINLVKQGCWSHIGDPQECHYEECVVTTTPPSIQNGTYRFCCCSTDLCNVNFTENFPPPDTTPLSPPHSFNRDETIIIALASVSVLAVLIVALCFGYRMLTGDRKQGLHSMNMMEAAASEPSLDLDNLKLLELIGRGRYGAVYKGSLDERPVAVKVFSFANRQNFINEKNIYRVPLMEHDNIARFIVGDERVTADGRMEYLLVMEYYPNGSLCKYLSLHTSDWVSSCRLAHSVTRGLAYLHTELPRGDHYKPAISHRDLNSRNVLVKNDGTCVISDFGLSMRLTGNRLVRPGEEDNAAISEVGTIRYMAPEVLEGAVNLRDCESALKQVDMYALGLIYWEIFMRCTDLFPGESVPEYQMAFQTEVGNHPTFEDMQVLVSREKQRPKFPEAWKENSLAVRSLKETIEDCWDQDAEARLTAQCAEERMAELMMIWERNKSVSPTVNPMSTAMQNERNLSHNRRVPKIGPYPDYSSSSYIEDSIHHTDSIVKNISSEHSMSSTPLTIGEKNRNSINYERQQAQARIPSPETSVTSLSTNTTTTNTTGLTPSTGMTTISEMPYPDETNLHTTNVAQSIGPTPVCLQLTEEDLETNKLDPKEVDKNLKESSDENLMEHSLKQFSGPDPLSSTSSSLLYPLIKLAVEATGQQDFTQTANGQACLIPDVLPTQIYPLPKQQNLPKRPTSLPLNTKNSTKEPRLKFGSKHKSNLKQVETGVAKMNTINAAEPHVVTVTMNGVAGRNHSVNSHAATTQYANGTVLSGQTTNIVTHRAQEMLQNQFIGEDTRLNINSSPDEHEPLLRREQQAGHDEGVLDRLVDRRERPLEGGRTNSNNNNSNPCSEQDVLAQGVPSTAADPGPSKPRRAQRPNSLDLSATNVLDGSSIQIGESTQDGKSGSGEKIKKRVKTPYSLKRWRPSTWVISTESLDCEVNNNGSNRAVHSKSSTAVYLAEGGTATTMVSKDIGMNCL
Sequence of Bone morphogenetic protein receptor type-1B (Homo sapiens) (O00238 whole entry): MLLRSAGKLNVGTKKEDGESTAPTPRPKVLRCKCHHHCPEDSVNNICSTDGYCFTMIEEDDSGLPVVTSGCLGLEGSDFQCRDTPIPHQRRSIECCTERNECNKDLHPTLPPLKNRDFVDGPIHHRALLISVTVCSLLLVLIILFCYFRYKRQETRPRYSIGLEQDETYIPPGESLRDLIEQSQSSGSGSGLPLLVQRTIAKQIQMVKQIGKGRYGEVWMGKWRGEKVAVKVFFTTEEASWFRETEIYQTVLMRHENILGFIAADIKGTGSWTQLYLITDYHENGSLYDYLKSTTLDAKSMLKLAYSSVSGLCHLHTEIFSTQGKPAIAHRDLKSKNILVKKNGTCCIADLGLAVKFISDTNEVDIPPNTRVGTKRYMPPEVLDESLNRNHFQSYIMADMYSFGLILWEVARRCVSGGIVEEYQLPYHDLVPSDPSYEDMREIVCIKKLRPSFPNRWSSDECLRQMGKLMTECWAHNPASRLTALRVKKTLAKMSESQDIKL

CC(C)CC(=O)N1CCc2nc(-c3ccc(Br)cc3)nc(N(C)Cc3ccccc3)c2C1 [THPP-1-NC]
inactive: residual activity [1] 100% | residual activity [2] 100% | residual activity [3] 100% | residual activity [4] 100% | residual activity [5] 100% | residual activity [6] 100% | residual activity [7] 99% | residual activity [8] 100% | residual activity [9] 100% | residual activity [10] 82% | residual activity [11] 100% | residual activity [12] 97% | residual activity [13] 100% | residual activity [14] 100% | inhibition [15] -5.76% | residual activity [16] 74% | residual activity [17] 100% | residual activity [18] 100% | residual activity [19] 100% | residual activity [20] 100% | residual activity [21] 100% | residual activity [22] 100% | residual activity [23] 100% | residual activity [24] 100% | residual activity [25] 100% | residual activity [26] 100% | residual activity [27] 100% | residual activity [28] 87% | residual activity [29] 87% | residual activity [30] 100% | residual activity [31] 100% | residual activity [32] 100% | residual activity [33] 100% | inhibition [34] 7.59% | residual activity [35] 100% | residual activity [36] 100% | residual activity [37] 94% | residual activity [38] 100%

COCCOc1nc(-c2ccc(Cl)nc2)nc2c1CN(C(=O)c1ncn3ccccc13)CC2 [THPP-1]
inactive: residual activity [1] 100% | residual activity [2] 100% | residual activity [3] 100% | residual activity [4] 100% | residual activity [5] 100% | residual activity [6] 100% | residual activity [7] 100% | residual activity [8] 100% | residual activity [9] 100% | residual activity [10] 94% | residual activity [11] 100% | residual activity [12] 98% | residual activity [13] 100% | residual activity [14] 100% | inhibition [15] 6.95% | residual activity [16] 86% | residual activity [17] 90% | residual activity [18] 100% | residual activity [19] 100% | residual activity [20] 100% | residual activity [21] 100% | residual activity [22] 100% | residual activity [23] 100% | residual activity [24] 100% | residual activity [25] 100% | residual activity [26] 100% | residual activity [27] 100% | residual activity [28] 90% | residual activity [29] 98% | residual activity [30] 100% | residual activity [31] 100% | residual activity [32] 100% | residual activity [33] 100% | inhibition [34] 7.79% | residual activity [35] 100% | residual activity [36] 100% | residual activity [37] 80% | residual activity [38] 100%
